Source: patent US7554012B2, “Plants and plant cells exhibiting resistance to AMPA, and methods for making the same” (priority 1998, dated 2009)

Biological target: T1, purified PhnO protein (Escherichia coli, UniProt P16691, P2A)
T1 construct: made in house; host or cells: E. coli JM101 carrying pMON15032 (recA promoter, nalidixic acid induction)
Experiment: AMPA transacylase acyl-CoA acyl donor specificity, HPLC
Type: biochemical, E. coli
Conditions: for [^14C]-AMPA % Conversion: 5 minutes 30° C.; for % Activity: 1 mM acetyl-CoA = 100% reference
Protocol: PhnO was purified from a one liter Luria Bertani broth culture of E. coli JM101 expressing a recombinant phnO gene from pMON15032 after nalidixic acid induction for three hours at 37° C. Cells were harvested by centrifugation and resuspended in 40 ml cold Tris buffer (0.1 M Tris-HCl pH 8) and placed on ice. The cell suspension was brought to 1 mM DTT and 0.5 mM PMSF. The suspension was lysed by 2 passages through a prechilled French pressure cell at 1,100 psi, centrifuged at 12,000 g (10,000 rpm in an Sorvall SA600 rotor) for 40 min at 4° C., then placed on ice. The cleared supernatants were poured into fresh 15 ml polypropylene tubes. The samples were split again into two equal portions and maintained at −80° C. until used further for purification of PhnO protein. 20 microliters of the soluble fraction was assayed for enzyme activity using the HPLC method described above in Example 2, except after terminating the assay with acid addition, the sample was stored at −80° C. A Sephacryl S200 column was prepared according to the manufacturers' instructions and equilibrated with a solution containing 20 mM Tris pH 8.0 and 0.5 mM MgCl2. The entire total soluble extract was layered over the top of the column bed after thawing on ice. Forty 9 ml fractions were collected from the column eluate, and thirty microliters of each fraction was analyzed by western blot using anti-PhnO antiserum after resolution on a 15% SDS-PAGE gel. Also, thirty microliters of each fraction was analyzed for AMPA acyl transferase activity using the method described in Example 2. […] These were represented by fractions 7 through 19 in this example, and were combined into a 100 ml volume, distributed into […] each containing 10 ml volumes, and stored at −80° C. for further use.
Anion exchange chromatography was used to determine the elution pattern of PhnO away from other contaminating proteins that co-elute during the Sephacryl S200 fractionation. One tube from the combined PhnO positive fractions was thawed on ice and injected into a 5/5 Mono-Q column pre-equilibrated with buffers A (one liter of 20 mM Tris-HCl pH 8.0 Mili-Q distilled deionized water) and B (one liter of 20 mM Tris-HCl pH 8.0, 1 M NaCl). The sample containing PhnO active protein was injected into the column and one milliliter fractions were collected. The column was washed for five minutes with a flow rate of 1.8 ml per minute Buffer A after loading the PhnO containing sample. At five minutes, Buffer B was added to the flow volume at 0.5 ml per minute for four minutes. Buffer B was ramped up to 22% of the flow volume at 10 minutes, 30% at 12 minutes, 36% at 13 minutes, 41% at 14 minutes, 46% at 15 minutes, 74% at 16 minutes, and 100% at 16 minutes through 22 minutes, at which point Buffer B flow was terminated and Buffer A was reinitiated at 100% to equilibrate the column. Ten microliter volumes from individual fractions collected from the Mono-Q column were analyzed by western blot and for transacylase activity as described in Example 2. […] Samples of this purified PhnO protein were used to determine enzyme's acyl donor substrate specificity.
Enzyme reactions were prepared as follows. […] A assay premix was prepared from which 45 microliters was used in each 100 microliter reaction. This 45 microliter premix sample consisted of 40 microliters distilled and deionized water, 2 microliters of 50 mM MgCl2, and 3 microliters of 1.3 mM [^14C]-AMPA (115,392 dpm per microliter). Reactions were initiated by mixing 40 microliters of 125 mM Tris-HCl pH 8.0, […] protein sample and 10 microliters acyl-CoA acyl donor compound in a microcentrifuge tube at room temperature. Each acyl-CoA acyl donor compound was prepared as a stock solution of 1 mM, 5 mM or 10 mM stocks. Each tube was then mixed with 45 microliters of the assay premix containing the [^14C]-AMPA […] substrate, mixed gently and transferred to a 30° C. water bath for 5 minutes. […]

T1 sequence (P16691 whole entry P2A): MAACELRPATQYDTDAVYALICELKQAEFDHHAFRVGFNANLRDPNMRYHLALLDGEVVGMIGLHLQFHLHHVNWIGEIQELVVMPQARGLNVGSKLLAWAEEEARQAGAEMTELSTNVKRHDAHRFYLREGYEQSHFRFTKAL

SMILES	[^14C]-AMPA % Conversion (acyl donor 0.1 mM) [%]	% Activity (acyl donor 0.1 mM) [%]	[^14C]-AMPA % Conversion (acyl donor 0.5 mM) [%]	% Activity (acyl donor 0.5 mM) [%]	[^14C]-AMPA % Conversion (acyl donor 1 mM) [%]	% Activity (acyl donor 1 mM) [%]
C/C=C/C(=O)SCCNC(=O)CCNC(=O)[C@H](O)C(C)(C)COP(=O)(O)OP(=O)(O)OC[C@H]1O[C@@H](n2cnc3c(N)ncnc32)[C@H](O)[C@@H]1OP(=O)(O)O [Crotonoyl-CoA, crotonoyl-CoA]	0.80	0.80	0.00	0.00	0.00	0.00
CCNC(=O)CCNC(=O)[C@H](O)C(C)(C)COP(=O)(O)OP(=O)(O)OC[C@H]1O[C@@H](n2cnc3c(N)ncnc32)[C@H](O)[C@@H]1OP(=O)(O)O [Desulfo-CoA, desulfo-CoA]	0.95	0.95	1.25	1.25	0.52	0.52
CC(C)(COP(=O)(O)OP(=O)(O)OC[C@H]1O[C@@H](n2cnc3c(N)ncnc32)[C@H](O)[C@@H]1OP(=O)(O)O)[C@@H](O)C(=O)NCCC(=O)NCCSC(=O)CCCC(=O)O [Glutaryl-CoA, glutaryl-CoA]	0.81	0.81	0.00	0.00	0.57	0.57
CC(C)C(=O)SCCNC(=O)CCNC(=O)[C@H](O)C(C)(C)COP(=O)(O)OP(=O)(O)OC[C@H]1O[C@@H](n2cnc3c(N)ncnc32)[C@H](O)[C@@H]1OP(=O)(O)O [Isobutyryl-CoA, isobutyryl-CoA]	2.10	2.10	0.20	0.20	0.00	0.00
CC(C(=O)O)C(=O)SCCNC(=O)CCNC(=O)[C@H](O)C(C)(C)COP(=O)(O)OP(=O)(O)OC[C@H]1O[C@@H](n2cnc3c(N)ncnc32)[C@H](O)[C@@H]1OP(=O)(O)O (stereo partly drawn) [Methylmalonyl-CoA, methylmalonyl CoA]	1.11	1.11	2.08	2.08	2.21	2.21
CCC(=O)SCCNC(=O)CCNC(=O)[C@H](O)C(C)(C)COP(=O)(O)OP(=O)(O)OC[C@H]1O[C@@H](n2cnc3c(N)ncnc32)[C@H](O)[C@@H]1OP(=O)(O)O [Propionyl-CoA, n-propionyl-CoA]	78.2	78.2	97.8	97.8	100.00	100.00
CC(C)(COP(=O)(O)OP(=O)(O)OC[C@H]1O[C@@H](n2cnc3c(N)ncnc32)[C@H](O)[C@@H]1OP(=O)(O)O)[C@@H](O)C(=O)NCCC(=O)NCCSC(=O)CCC(=O)O [Succinyl-CoA, succinyl-CoA]	5.06	5.06	3.38	3.38	1.56	1.56
C/C=C(\C)C(=O)SCCNC(=O)CCNC(=O)[C@H](O)C(C)(C)COP(=O)(O)OP(=O)(O)OC[C@H]1O[C@@H](n2cnc3c(N)ncnc32)[C@H](O)[C@@H]1OP(=O)(O)O [Tiglyl-CoA, tiglyl-CoA]	0.00	0.00	0.00	0.00	0.99	0.99
